Test results: patent US6544989B2, “Benzazoles: benzoxazole, benzthiazole and benzimidazole derivatives” (Syngenta Limited, priority 1998, dated 2003)

Tests used:
Meloidogyne incognita = test: Nematode test, J2 infective juveniles of Meloidogyne incognita, mortality; settings: 12.5 ppm; J2 infective juveniles suspended in solution; mortality after three days
Musca domestica = settings: 500 ppm by weight; knockdown assessed 15 minutes after treatment
Rhizoctonia solani = test: Fungicidal test, Rhizoctonia solani (RHIZSO) on rice, PRCO; type: in vivo; settings: METHOD 2 (unbanded)
Septoria nodorum = test: Fungicidal test, Septoria nodorum (LEPTNO) on wheat, PRCO; type: in vivo; settings: METHOD 2 (unbanded)
Uncinula necator = test: Fungicidal test, Uncinula necator (UNCINE) on vines, PRCO; type: in vivo; settings: METHOD 2 (unbanded)
Puccinia recondita = test: Fungicidal test, Puccinia recondita (PUCCRT) on wheat, PRCO; type: in vivo; settings: METHOD 2 (unbanded)
Plasmopara viticola = test: Fungicidal test, Plasmopara viticola (PLASVI) on vines, PRCO; type: in vivo; settings: METHOD 2 (unbanded)
Venturia inaequalis = test: Fungicidal test, Venturia inaequalis (VENTIN) on apples, PRCO; type: in vivo; settings: METHOD 2 (unbanded)
[1] = tested on: Erysiphe graminis f.sp. tritici; test: Fungicidal test, Erysiphe graminis f.sp. tritici (ERYSGT) on wheat, PRCO; type: in vivo; settings: 1 d Prot/Foir; METHOD 2 (unbanded)
[2] = tested on: Phytophthora infestans lycopersici; type: in vivo; settings: METHOD 2 (unbanded)
Pyricularia oryzae = type: in vivo; settings: METHOD 2 (unbanded)

| Compound | MELGIN = Meloidogyne incognita, grading of mortality (score) (Meloidogyne incognita) | MUSCDO AC = Musca domestica (knockdown), score (Musca domestica) | RHIZSO 1 d Prot/Foir PRCO (Rhizoctonia solani) | LEPTNO 1 d Prot/Foir PRCO (Septoria nodorum) | UNCINE 1 d Prot/Foir PRCO (Uncinula necator) | PUCCRT 1 d Prot/Foir PRCO (Puccinia recondita) | PLASVI 1 d Prot/Foir PRCO (Plasmopara viticola) | VENTIN 1 d Prot/Foir PRCO (Venturia inaequalis) | ERYSGT 1 d Prot/Foir PRCO [1] | PHYTIN 1 d Prot/Foir PRCO [2] | PYRIOR 1 d Prot/Foir PRCO (Pyricularia oryzae) |
| --- | --- | --- | --- | --- | --- | --- | --- | --- | --- | --- | --- |
| CCc1nc2cc(CC(=O)Nc3snc(C)c3Cl)ccc2o1 [3(A3)] | 0 (0 indicates less than 40% mortality) | 9 (9 indicates 80-100% mortality) | 0 | 33 | 27 | 98 | 14 | 67 | 4 | – | – |
| Cc1nsc(NC(=O)Cc2ccc3oc(C(C)C)nc3c2)c1Cl [8(A3)] | 0 (0 indicates less than 40% mortality) | 9 (9 indicates 80-100% mortality) | 0 | 0 | 40 | 90 | 6 | 26 | 20 | – | – |
| CCC(C)c1nc2cc(CC(=O)Nc3snc(C)c3Cl)ccc2o1 (centres unmarked) [10(A3)] | 0 (0 indicates less than 40% mortality) | 5 (5 indicates 40-79% mortality) | 0 | 28 | 96 | 100 | 87 | 40 | 98 | 100 | 77 |
| CCC(CC)c1nc2cc(CC(=O)Nc3snc(C)c3Cl)ccc2o1 [13(A3)] | 0 (0 indicates less than 40% mortality) | 9 (9 indicates 80-100% mortality) | 19 | 58 | 100 | 100 | 100 | 53 | 100 | 93 | 96 |
| Cc1nsc(NC(=O)Cc2ccc3oc(CC(C)C)nc3c2)c1Cl [14(A3)] | 0 (0 indicates less than 40% mortality) | 9 (9 indicates 80-100% mortality) | 12 | 28 | 98 | 97 | 89 | 10 | 90 | 100 | 90 |
| Cc1nsc(NC(=O)Cc2ccc3nc(CC(C)(C)C)oc3c2)c1Cl [15(A23)] | 0 (0 indicates less than 40% mortality) | 0 (0 indicates less than 40% mortality) | 0 | 83 | 100 | 98 | – | 100 | 62 | 100 | 80 |
| Cc1nsc(N(C)C(=O)Cc2ccc3oc(CC(C)(C)C)nc3c2)c1Cl [15(B3)] | 0 (0 indicates less than 40% mortality) | 0 (0 indicates less than 40% mortality) | 29 | −2 | 100 | 15 | 79 | 5 | 75 | 99 | 69 |
| Cc1nsc(NC(=S)Cc2ccc3oc(CC(C)(C)C)nc3c2)c1Cl [15(V3)] | 0 (0 indicates less than 40% mortality) | 0 (0 indicates less than 40% mortality) | 0 | −2 | 100 | 100 | – | 10 | 87 | 100 | 100 |
| CC(C)=Cc1nc2cc(CC(=O)Nc3snc(C)c3Cl)ccc2o1 [46(A3)] | 0 (0 indicates less than 40% mortality) | 5 (5 indicates 40-79% mortality) | 0 | 88 | 100 | 100 | 99 | 84 | 97 | – | 92 |
